Assay results as given in US4968455A, “Tris(triorganotin) esters of trimeric fatty acids” (Schering Aktiengesellschaft, priority 1984, dated 1990).

Assays:
[1] = Water solubility in tap water (one week stirring, chloroform extraction, tin by atomic absorption spectroscopy); assay type: physicochemical; conditions: products of Examples 1 and 2 based on 100%, 10080 min
Description: 1 g of the substance to be tested was mixed in a beaker with 1 liter of tap water by stirring for one week. After settling and decanting, the organotin compounds dissolved in the water were extracted with chloroform. The tin concentrations were determined by atomic absorption spectroscopy.

[2] = Thermal stability, one hour treatment at 180° C. in open glass vessels; assay type: physicochemical; conditions: tributyltin content not determinable
Description: After prior methylation, the content of tributyltin compounds after a one hour treatment at 180° C. in open glass vessels was determined by gas chromatography.

[3] = Evaporation behavior: weight loss after one week storage in a circulating-air dryer at 65° C.; assay type: physicochemical; conditions: products of Examples 1 and 2 based on 100%
Description: (§1) Weight losses were determined after one week storage in a circulating-air dryer at 65° C. and tests with a thermobalance (onset of weight loss, and weight loss at 350° C.) were performed.
(§2) The exact initial weight of the specimens (about 2 g) in glass Petri dishes (about 10 cm in diameter) is determined and the weight loss after treatment is determined by reweighing.

[4] = Evaporation behavior: thermobalance tests; assay type: physicochemical; conditions: products of Examples 1 and 2 based on 100%
Description: as §1, §2

Bacillus mesentericus = experiment: Overlay test, zones of inhibition, Bacillus mesentericus; assay type: cell-based; conditions: two days at 37° C.
Bacillus subtilis = experiment: Overlay test, zones of inhibition, Bacillus subtilis; assay type: cell-based; conditions: two days at 37° C.
Proteus vulgaris = experiment: Overlay test, zones of inhibition, Proteus vulgaris; assay type: cell-based; conditions: two days at 37° C.
[5] = 0.10 wt. % tin (impregnating solution: TBTO 0.25; TBTL, TBTN 0.5; Ex. 1 1.0; Ex. 2 1.1 wt. %)
[6] = 0.16 wt. % tin (impregnating solution: TBTO 0.4; TBTL, TBTN 0.8; Ex. 1 1.65; Ex. 2 1.7 wt. %)
[7] = 0.24 wt. % tin (impregnating solution: TBTO 0.6; TBTL, TBTN 1.2; Ex. 1 2.45; Ex. 2 2.6 wt. %)
[8] = 0.40 wt. % tin (impregnating solution: TBTO 1.0; TBTL, TBTN 2.0; Ex. 1 4.1; Ex. 2 4.3 wt. %)

CCC[CH2][Sn]([CH2]CCC)([CH2]CCC)[O][Sn]([CH2]CCC)([CH2]CCC)[CH2]CCC [TBTO, tri-n-butyltin oxide]
Water solubility [1]: 24.0 mg/liter of water
weight loss (1 hour at 180° C.) [2]: 98%
Weight loss after 7 days at 65° C. [3]: 27.3%
Thermobalance: Weight loss at 350° C. ([4]; 350° C.): 80%
Thermobalance: Onset of weight loss [4]: 75 °C
Zones of inhibition about the specimens, Bacillus mesentericus (Bacillus mesentericus; [5]): 5 cm^2
Zones of inhibition about the specimens, Bacillus mesentericus (Bacillus mesentericus; [6]): 8 cm^2
Zones of inhibition about the specimens, Bacillus mesentericus (Bacillus mesentericus; [7]): 14 cm^2
Zones of inhibition about the specimens, Bacillus mesentericus (Bacillus mesentericus; [8]): 20 cm^2
Zones of inhibition about the specimens, Bacillus subtilis (Bacillus subtilis; [5]): 6 cm^2
Zones of inhibition about the specimens, Bacillus subtilis (Bacillus subtilis; [6]): 13 cm^2
Zones of inhibition about the specimens, Bacillus subtilis (Bacillus subtilis; [7]): 18 cm^2
Zones of inhibition about the specimens, Bacillus subtilis (Bacillus subtilis; [8]): 20 cm^2
Zones of inhibition about the specimens, Proteus vulgaris (Proteus vulgaris; [5]): 3 cm^2
Zones of inhibition about the specimens, Proteus vulgaris (Proteus vulgaris; [6]): 6 cm^2
Zones of inhibition about the specimens, Proteus vulgaris (Proteus vulgaris; [7]): 9 cm^2
Zones of inhibition about the specimens, Proteus vulgaris (Proteus vulgaris; [8]): 12 cm^2
